pIC50: −log10 of the molar value. Like-named read-outs stand apart in the source and are kept apart here.
Key:
Type in all cases: cell-based
[1] = test system: MCF-7 breast cancer cells; assay: Cell viability by MTT assay; conditions: read-out: IC50, cell viability (cytotoxicity)
Source text: Materials and methods: All organic ligands were purchased from Sigma-Aldrich and gold salts from Strom Chemicals USA. Breast cancer cell lines MCF-7 were obtained from American Type Culture Collection, ATCC (Virginia, USA). Dulbecco's Modified Eagle's Medium (DMEM), Fetal Bovine Serum (FBS), and 0.25% Trypsin 0.1% EDTA were obtained from Gibco (Grand Island, NY). The 3-(4,5-dimethylthiazol-2-yl)-2,5-diphenyltetrazolium bromide (MTT) and DMSO were purchased from Sigma-Aldrich (St. Louis, MO).
Cell viability was determined by 3-(4,5-dimethylthiazol-2-yl)-2,5-diphenyltetrazolium bromide (MTT) assay. Breast cancer cells, MCF-7, were seeded in a 96-well tissue culture plate at 10,000 cells/well in 200 μl of DMEM. […] Then, 20 μl of MTT (5 mg/mL) was added to the each well and incubated in a CO2 incubator at 37° C. in the dark for 3 h. After incubation, a purple-colored formazan dye is produced and appeared as dark crystals in the bottom of the wells. To dissolve the formazan crystals, the culture medium was discarded and 100 μL of isopropanol were added to each well. The absorbance was recorded at 570 nm against reagent blank. The cell viability was calculated by the formula below: Cell viability (%)=[Absorbance Compound/Absorbance DMSO]*100

MCF-7 cells [2] = assay: Mitochondrial membrane potential analysis, Muse MitoPotential Kit, flow cytometry; conditions: for percentage of depolarized cancer cells (mitochondrial membrane potential): 24 h
Description: Mitochondrial membrane potential is an important parameter to assess the integrity of mitochondria, which is a potential target in cancer therapeutics. The loss of mitochondrial membrane potential has been known to be associated with early stages of apoptosis and reactive oxygen species (ROS) induction. To assess the mitochondrial membrane potential, Muse® MitoPotential Kit (Luminex, IL, USA) was used. MCF-7 cells were seeded in a 6 well plate at 1.5×10^4 cells/well. […] DMSO was used as a negative control. The final DMSO concentration in each well was less than 0.1%. Then, cells were stained with MitoPotential reagents following the manufacture's protocol. The percentage of depolarized/live cells was estimated by flow cytometry.

MCF-7 cells [3] = assay: Oxidative stress analysis (ROS generation), Muse Oxidative Stress Kit, flow cytometry; conditions: 24 h
Description: The induction of oxidative stress via ROS generation endogenously in cancer cells is a potential target of anticancer agents. Oxidative stress causes irreversible cellular damage which induces apoptosis in concentration-dependent manner. MCF-7 cells were plated at 1.5×10^4 cells/well using a 6 well plate to estimate the generation of reactive oxygen species (ROS). […] DMSO was used as a negative control. The final DMSO concentration in each well was less than 0.1%. Then, the cells were harvested and stained with Muse® Oxidative Stress Kit (Luminex, IL, USA) following the manufacture's protocol. The percentage of cells that were undergoing oxidative stress was measured by flow cytometry.

[4] = test system: MCF-7 breast cancer cell line; assay: Apoptosis analysis, Muse Annexin V Live & Dead Cell Kit, flow cytometry; conditions: 24 h, versus control
Description: MCF-7 cells were seeded in 6 well plates at 1.5×10^4 cells per well. […] DMSO was used as a negative control. The final DMSO concentration in each well was less than 0.1%. The harvested cells were stained with Annexin V-FITC and Dead Cell reagent following the manufacture's protocol. Then, the percentage of apoptotic cells was estimated by flow cytometry.

[5] = MCF-7, higher concentration (5 μM)
[6] = MCF-7, lower concentration (1 μM)

Compound	pIC50 ([1]; Homo sapiens, MCF7, MCF-7, 24 h treatment)	percentage of depolarized cancer cells (mitochondrial membrane potential) (MCF-7 cells [2]; [5]) [%]	percentage of depolarized cancer cells (mitochondrial membrane potential) (MCF-7 cells [2]; [6]) [%]	ROS generation (MCF-7 cells [3]; MCF-7, 1 μM) [%]	ROS generation (MCF-7 cells [3]; MCF-7, 5 μM) [%]	pIC50 ([1]; MCF-7, 24 h treatment)	induction of apoptosis (early and late combined) ([4]; MCF-7, 1 μM) [folds]	induction of apoptosis (early and late combined) ([4]; MCF-7, 3 μM) [folds]	induction of apoptosis (early and late combined) ([4]; MCF-7, 10 μM) [folds]	mitochondrial membrane potential depolarization compared to positive control Sorafenib (MCF-7 cells [2]; MCF-7, 24 h)
CNC(=O)c1cc(Oc2ccc(NC(=O)Nc3ccc(Cl)c(C(F)(F)F)c3)cc2)ccn1 [Sorafenib, reference compound]	5.35	12.0	2.7	73.76	122.11	–	–	–	–	–
O=Cc1ccnc(-c2cc(C=O)ccn2)c1.S=C([S][Au+2])N(Cc1ccccc1)Cc1ccccc1 [DDBDG, dibenzyldithiocarbamato-2,2′-bipyridine-4,4′-dicarboxaldehyde gold (III)]	–	27.8	27.0	125.53	103.47	6.06	2.2	4.4	5.5	roughly three-folds higher

Source: patent US12161637B2, “Anti-cancer gold complex, process of synthesis and method of treatment thereof” (King Saud University, priority 2022, dated 2024)
